Like-named read-outs stand apart in the source and are kept apart here.
Key:
pancreatic islets [1] = conditions: injected into fetal animals; cited from earlier work
pancreatic islets [2] = conditions: injected into fetal animals; cited from earlier work; remark: listed apart in the source
[3] = tested on: mice expressing thymidine kinase under the albumin promoter; experiment: Engraftment of human hepatocytes in transgenic mice given gancyclovir after birth; type: in vivo, mouse; conditions: 50 mg/kg on days 1 and 3 at 14 days of age; sacrificed thirty days later
Procedure: Transgenic mice are produced that express the thymidine kinase gene under the albumin promoter. The male mice are bred with wild type females. Human hepatocytes (2×10^6 per fetal mouse) are injected at 17 days gestation, just prior to delivery. At 14 days of age, the mice are injected with gancyclovir (50 mg/kg) on days 1 and 3 or with the vehicle. Thirty days later, the mice are sacrificed.

fetal pig liver = experiment: Engraftment of human hepatocytes in fetal pigs after gancyclovir to the sow and human cord blood cell infusion; type: in vivo; conditions: gancyclovir 100 mg/kg i.v. to sow
Procedure: A non-transgenic sow is bred with a boar that is hemizygous for a mutated thymidine kinase transgene under the control of an albumin promoter. Pregnancy is confirmed with ultrasound and gancyclovir (100 mg/kg, i.v.) is administered at 40 days gestation. A laparotomy is performed at 45 days. Each pig is infused with 10×10^6 human cord blood cells. The piglets are delivered at term by Caesarean section. Blood is drawn from each fetal pig and analyzed for the presence of the suicide transgene using PCR. Serum is tested for the presence of human liver proteins, including albumin, α1-antitrypsin, and serum amyloid A. Sections of liver are frozen and stained for human albumin.

[4] = tested on: untransfected Huh-7 cells; experiment: Gancyclovir effect on untransfected cells, propidium iodine FACS; type: cell-based, human; conditions: gancyclovir 4, 8, 16 μM in culture media
Procedure: To assess the function of mutated thymidine kinase, Huh-7 cells were stably transfected with AlbxTK. Transfected cells were selected using 200 μg/ml Zeocin. Transfected cells as well as untransfected cells were plated in duplicate in 24-well plates at a 40 percent confluence ratio. Gancyclovir was added to the cells in the culture media at different concentrations (4 μM, 8 μM, and 16 μM. After 5 days, the cells were trypsinized, washed twice in PBS, and stained with propidium iodine for FACS analysis.

[5] = tested on: non-transgenic FVB mice (mothers); experiment: Gancyclovir i.v. to pregnant non-transgenic mice, histology of the mothers; type: in vivo, mouse; conditions: any dose (0 to 100 mg/kg i.v.)
From the text: These males were bred with non-transgenic FVB mice.

[6] = tested on: Huh-7 cells stably transfected with AlbxTK; experiment: Gancyclovir sensitivity of Huh-7 cells transfected with AlbxTK, propidium iodine FACS; type: cell-based, human
Procedure: Mouse and human liver cell lines were transfected with constructs containing delta thymidine kinase under the control of either a porcine albumin or α-fetoprotein (AFP) promoter. The mouse cell line (TIB73) is a line of mature hepatocytes in which albumin is expressed. The human cell line (Huh-7) is a line of hepatocellular carcinoma cells that express predominantly AFP. The transfected cells were tested for thymidine kinase by Western blot. To assess the function of mutated thymidine kinase, Huh-7 cells were stably transfected with AlbxTK. Transfected cells were selected using 200 μg/ml Zeocin. Transfected cells as well as untransfected cells were plated in duplicate in 24-well plates at a 40 percent confluence ratio. Gancyclovir was added to the cells in the culture media at different concentrations (4 μM, 8 μM, and 16 μM. […]

[7] = tested on: fetal mice heterozygous for thymidine kinase under the albumin promoter; conditions: for fetal hepatocyte injury (histology): 14 days gestation
From the text: The suicide gene product preferably is expressed in the appropriate tissue of the fetal host mammal at a level sufficient to be sensitive to a prodrug. The optimal dose of a prodrug depends on the prodrug, the particular suicide gene, the level of suicide gene expression in the target cells, zygosity of the fetal mammal, route of administration, and placental transport. Optimal doses can readily be determined by administering increasing doses of the prodrug to the pregnant mammal, assessing the effect on the target cells using standard pathology methods and assessing the effect on fetal survival using ultrasound and pathology techniques. The optimal dose would produce significant cell injury (>20%) with a minimum of fetal deaths (<15%).
Transgenic mice were produced with the FVB strain containing the mutated thymidine kinase transgene under the albumin promoter. […] These males were bred with non-transgenic FVB mice. At 14 days gestation, gancyclovir (0 to 100 mg/kg body weight) was injected intravenously into the pregnant mice. Tissues from the mothers and fetuses were analyzed by histology.

[8] = tested on: hepatocytes of adult transgenic mice; conditions: administered to adult transgenic mice; cited from earlier work

Row | Structure (SMILES) | effect on fetal pancreatic islets (pancreatic islets [1]) | effect on maternal islets (pancreatic islets [1]) | effect on fetal pancreatic islets (pancreatic islets [2]) | effect on maternal islets (pancreatic islets [2]) | engraftment with human hepatocytes versus controls not treated [3] | levels of human albumin, α1-antitrypsin inhibitor and serum amyloid A (fetal pig liver; piglets without thymidine kinase transgene) | liver engrafted with human hepatocytes (fetal pig liver; pigs with thymidine kinase suicide gene, average) | liver engrafted with human hepatocytes (fetal pig liver; pigs without suicide transgene) | effect on non-transfected cells [4] | injury to the hepatocytes of the mother [5] | cell death ([6]; 8 or 16 μM gancyclovir, 5 days) | cell killing ([6]; 7 days) | fetal survival ([7]; 25 mg/kg intravenous injection to pregnant mouse) | fetal survival ([7]; 50 mg/kg and higher, to pregnant mouse) | fetal hepatocyte injury (histology) ([7]; 50 mg/kg i.v. to pregnant mouse) | fetal hepatocyte injury (histology) ([7]; 100 mg/kg i.v. to pregnant mouse) | injury to the non-liver tissues in the fetal mice ([7]; mouse, in vivo) | placental transfer ([7]; mouse, in vivo, iv) | hepatocyte death [8]
1 | CN(N=O)C(=O)N[C@H]1C(O)O[C@H](CO)[C@@H](O)[C@@H]1O (mixture of isomers) [streptozotocin] | destroys the pancreatic islets | relatively little effect | destroys the pancreatic islets | relatively little effect |  |  |  |  |  |  |  |  |  |  |  |  |  |  | 
2 | Nc1nc(O)c2ncn(COC(CO)CO)c2n1 [gancyclovir] |  |  |  |  | substantially greater engraftment | less than 1 % of levels seen in humans | 25 % of the total liver | less than 2 % of the total liver | only a minimal effect | no observable injury | significantly more cell death | entirely killed | the fetal pups survived | the fetal mice died | massive hepatic necrosis | massive hepatic necrosis | no observable injury | crosses the placental barrier | Most of the hepatocytes then died off

Source: patent US7626075B2, “Growth of foreign cells in fetal animals facilitated by conditional and selective destruction of native host cells” (priority 2002, dated 2009)
